For test [1], the target named is T1, Peripheral plasma membrane protein CASK (Homo sapiens) (UniProt O14936).
T1 sequence (whole entry): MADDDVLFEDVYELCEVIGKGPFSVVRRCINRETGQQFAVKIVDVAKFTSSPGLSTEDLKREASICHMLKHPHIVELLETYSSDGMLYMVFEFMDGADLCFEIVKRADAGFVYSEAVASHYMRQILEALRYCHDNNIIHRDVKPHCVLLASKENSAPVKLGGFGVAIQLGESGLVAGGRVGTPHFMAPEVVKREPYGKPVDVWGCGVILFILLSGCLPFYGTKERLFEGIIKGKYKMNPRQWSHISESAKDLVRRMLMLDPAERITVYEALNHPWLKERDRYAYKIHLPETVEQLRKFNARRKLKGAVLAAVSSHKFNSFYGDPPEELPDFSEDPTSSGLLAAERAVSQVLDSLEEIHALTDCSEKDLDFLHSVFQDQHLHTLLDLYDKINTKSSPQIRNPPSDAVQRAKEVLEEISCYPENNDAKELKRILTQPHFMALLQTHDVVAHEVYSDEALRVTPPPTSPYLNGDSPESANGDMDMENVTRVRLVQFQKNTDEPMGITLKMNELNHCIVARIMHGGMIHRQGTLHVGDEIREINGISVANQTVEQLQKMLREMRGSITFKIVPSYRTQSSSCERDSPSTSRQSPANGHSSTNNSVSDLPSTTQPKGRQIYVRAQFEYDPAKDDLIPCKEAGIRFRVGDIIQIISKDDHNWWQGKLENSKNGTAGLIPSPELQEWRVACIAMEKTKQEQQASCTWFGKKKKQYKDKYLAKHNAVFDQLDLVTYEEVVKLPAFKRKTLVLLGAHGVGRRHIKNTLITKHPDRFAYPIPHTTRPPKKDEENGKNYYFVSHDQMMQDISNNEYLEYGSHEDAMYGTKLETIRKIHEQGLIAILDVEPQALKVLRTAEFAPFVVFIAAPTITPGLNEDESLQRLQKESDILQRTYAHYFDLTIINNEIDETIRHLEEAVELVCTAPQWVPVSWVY
The test is described as follows: Selectivity interaction (KinomeScan (DiscoverX)) EUB0000595a CASK. To be noted: at 10 µM.

In test [2] the target is Serine/threonine-protein kinase 24 (Homo sapiens) (UniProt Q9Y6E0). The test is described as follows: Selectivity interaction (ActivX KiNativ screen (ex vivo kinase selectivity in human PBMCs)) EUB0001619a STK24. The class given is cell-based. To be noted: PBMC, at 1 µM.
The test system of test [3] is Leucine-rich repeat serine/threonine-protein kinase 2 (Homo sapiens), Q5S007 [G2019S]. The test is described as follows: (§1) Selectivity interaction (KinomeScan (DiscoverX)) EUB0000666a LRRK2. To be noted: at 10 µM.
The target in test [4] is Leucine-rich repeat serine/threonine-protein kinase 2 (Homo sapiens, UniProt Q5S007). Described as §1. To be noted: at 10 µM.
Test [5] has as its target Serine/threonine-protein kinase PAK 1 (Homo sapiens) (UniProt Q13153). Put plainly: Selectivity interaction (Kinase panel (DSF assay)) EUB0001559a PAK1.
Test [6] addresses Dual specificity protein kinase CLK2 (Homo sapiens, UniProt P49760). Put plainly: Selectivity interaction (KinomeScan (DiscoverX)) EUB0001049a CLK2. To be noted: at 1 µM.
Test [7] has as its target Serine/threonine-protein kinase PLK2 (Homo sapiens, UniProt Q9NYY3). Put plainly: Selectivity interaction (KinomeScan (DiscoverX)) EUB0001049a PLK2. To be noted: at 1 µM.
The target of test [8] is NT-3 growth factor receptor (Homo sapiens, UniProt Q16288). Put plainly: Selectivity interaction (KinomeScan (DiscoverX)) EUB0000655a NTRK3. To be noted: at 10 µM.
The target of test [9] is T2, Mitogen-activated protein kinase kinase kinase 15 (Homo sapiens) (UniProt Q6ZN16).
T2 sequence (whole entry): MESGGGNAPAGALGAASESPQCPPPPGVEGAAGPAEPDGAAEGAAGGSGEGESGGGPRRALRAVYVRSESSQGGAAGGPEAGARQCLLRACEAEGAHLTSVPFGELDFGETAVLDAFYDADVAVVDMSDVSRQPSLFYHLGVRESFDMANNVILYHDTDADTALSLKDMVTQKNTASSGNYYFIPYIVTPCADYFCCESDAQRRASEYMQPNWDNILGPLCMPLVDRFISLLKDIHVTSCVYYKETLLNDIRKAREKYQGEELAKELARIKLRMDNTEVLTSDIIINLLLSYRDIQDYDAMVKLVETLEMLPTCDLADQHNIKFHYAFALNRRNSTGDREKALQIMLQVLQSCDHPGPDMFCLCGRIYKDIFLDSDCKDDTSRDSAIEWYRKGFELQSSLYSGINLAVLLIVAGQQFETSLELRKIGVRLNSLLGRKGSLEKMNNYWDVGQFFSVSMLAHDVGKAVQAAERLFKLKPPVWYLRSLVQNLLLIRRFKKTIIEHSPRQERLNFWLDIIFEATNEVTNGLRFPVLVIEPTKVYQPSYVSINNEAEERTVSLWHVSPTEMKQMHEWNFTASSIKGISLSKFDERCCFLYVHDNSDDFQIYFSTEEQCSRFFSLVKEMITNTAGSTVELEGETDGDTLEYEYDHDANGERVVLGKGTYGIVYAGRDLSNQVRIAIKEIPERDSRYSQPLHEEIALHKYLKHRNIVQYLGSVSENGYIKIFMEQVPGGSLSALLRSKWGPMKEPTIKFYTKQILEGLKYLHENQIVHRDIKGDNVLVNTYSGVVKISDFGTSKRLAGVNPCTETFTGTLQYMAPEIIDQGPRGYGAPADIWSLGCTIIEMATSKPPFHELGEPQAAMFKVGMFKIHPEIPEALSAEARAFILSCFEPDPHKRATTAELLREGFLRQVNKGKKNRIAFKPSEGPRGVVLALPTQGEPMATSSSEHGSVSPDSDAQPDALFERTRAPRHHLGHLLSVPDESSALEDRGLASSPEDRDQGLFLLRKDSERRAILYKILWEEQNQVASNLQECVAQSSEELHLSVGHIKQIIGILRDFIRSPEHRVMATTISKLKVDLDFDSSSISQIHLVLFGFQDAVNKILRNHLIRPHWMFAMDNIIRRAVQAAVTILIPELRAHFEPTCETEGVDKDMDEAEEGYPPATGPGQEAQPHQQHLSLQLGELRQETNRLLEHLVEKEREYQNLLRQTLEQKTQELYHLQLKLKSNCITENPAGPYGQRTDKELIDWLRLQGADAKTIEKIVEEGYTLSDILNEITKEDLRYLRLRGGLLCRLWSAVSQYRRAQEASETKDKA
Put plainly: Selectivity interaction (KinomeScan (DiscoverX)) EUB0001079a MAP3K15. To be noted: at 1 µM.

The target of test [10] is Casein kinase I isoform gamma-1 (Homo sapiens) (UniProt Q9HCP0). Put plainly: Selectivity interaction (KinomeScan (DiscoverX)) EUB0001079a CSNK1G1. To be noted: at 1 µM.
Test [11] has as its target Calcium/calmodulin-dependent protein kinase type II subunit alpha (Homo sapiens, UniProt Q9UQM7). The test is described as follows: Selectivity interaction (KinomeScan (DiscoverX)) EUB0000229b CAMK2A. Particulars: at 10 µM.

We go through eight compounds from ChEMBL document CHEMBL5465560, “Selectivity Literature for EUbOPEN Chemogenomic Library” (2024).

Molecules are shown by their SMILES.

Serine/threonine-protein kinase PAK 1 (Homo sapiens), sequence (Q13153 whole entry): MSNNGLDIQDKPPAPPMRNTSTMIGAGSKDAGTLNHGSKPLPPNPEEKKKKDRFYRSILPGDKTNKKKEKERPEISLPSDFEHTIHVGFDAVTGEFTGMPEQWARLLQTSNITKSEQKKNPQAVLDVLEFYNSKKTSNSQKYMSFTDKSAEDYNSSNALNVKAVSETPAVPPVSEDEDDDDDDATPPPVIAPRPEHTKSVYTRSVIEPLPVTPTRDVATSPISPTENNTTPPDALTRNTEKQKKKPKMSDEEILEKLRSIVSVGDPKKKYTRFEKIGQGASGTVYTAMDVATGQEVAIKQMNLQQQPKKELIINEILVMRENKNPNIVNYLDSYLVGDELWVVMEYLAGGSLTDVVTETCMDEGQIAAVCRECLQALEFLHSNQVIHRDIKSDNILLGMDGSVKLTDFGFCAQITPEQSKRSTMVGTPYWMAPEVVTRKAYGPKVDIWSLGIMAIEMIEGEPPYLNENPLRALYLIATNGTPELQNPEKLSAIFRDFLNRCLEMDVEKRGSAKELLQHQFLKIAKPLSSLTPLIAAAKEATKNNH
NT-3 growth factor receptor, sequence (Q16288 32-839 limits assumed): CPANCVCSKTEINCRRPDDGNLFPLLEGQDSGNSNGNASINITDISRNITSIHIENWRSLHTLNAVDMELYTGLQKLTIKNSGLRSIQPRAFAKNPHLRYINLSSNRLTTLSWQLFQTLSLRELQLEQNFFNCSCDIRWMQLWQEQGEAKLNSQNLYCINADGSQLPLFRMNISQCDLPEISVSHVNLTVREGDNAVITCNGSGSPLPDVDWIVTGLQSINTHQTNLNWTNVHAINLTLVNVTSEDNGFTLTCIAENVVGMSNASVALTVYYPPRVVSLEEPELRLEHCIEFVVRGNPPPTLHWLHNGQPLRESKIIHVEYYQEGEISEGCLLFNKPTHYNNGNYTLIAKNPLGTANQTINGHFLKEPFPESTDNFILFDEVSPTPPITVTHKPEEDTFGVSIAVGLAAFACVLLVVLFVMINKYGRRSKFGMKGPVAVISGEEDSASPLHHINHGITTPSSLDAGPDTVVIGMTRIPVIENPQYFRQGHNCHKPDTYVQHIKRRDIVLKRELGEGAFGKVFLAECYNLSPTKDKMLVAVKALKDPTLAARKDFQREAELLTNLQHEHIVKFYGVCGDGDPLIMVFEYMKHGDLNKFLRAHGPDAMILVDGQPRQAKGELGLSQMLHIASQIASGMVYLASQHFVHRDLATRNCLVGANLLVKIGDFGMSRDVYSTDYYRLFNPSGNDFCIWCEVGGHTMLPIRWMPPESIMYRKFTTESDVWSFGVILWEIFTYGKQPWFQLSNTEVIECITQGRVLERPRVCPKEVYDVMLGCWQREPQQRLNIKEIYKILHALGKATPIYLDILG
Leucine-rich repeat serine/threonine-protein kinase 2, sequence (Q5S007 whole entry): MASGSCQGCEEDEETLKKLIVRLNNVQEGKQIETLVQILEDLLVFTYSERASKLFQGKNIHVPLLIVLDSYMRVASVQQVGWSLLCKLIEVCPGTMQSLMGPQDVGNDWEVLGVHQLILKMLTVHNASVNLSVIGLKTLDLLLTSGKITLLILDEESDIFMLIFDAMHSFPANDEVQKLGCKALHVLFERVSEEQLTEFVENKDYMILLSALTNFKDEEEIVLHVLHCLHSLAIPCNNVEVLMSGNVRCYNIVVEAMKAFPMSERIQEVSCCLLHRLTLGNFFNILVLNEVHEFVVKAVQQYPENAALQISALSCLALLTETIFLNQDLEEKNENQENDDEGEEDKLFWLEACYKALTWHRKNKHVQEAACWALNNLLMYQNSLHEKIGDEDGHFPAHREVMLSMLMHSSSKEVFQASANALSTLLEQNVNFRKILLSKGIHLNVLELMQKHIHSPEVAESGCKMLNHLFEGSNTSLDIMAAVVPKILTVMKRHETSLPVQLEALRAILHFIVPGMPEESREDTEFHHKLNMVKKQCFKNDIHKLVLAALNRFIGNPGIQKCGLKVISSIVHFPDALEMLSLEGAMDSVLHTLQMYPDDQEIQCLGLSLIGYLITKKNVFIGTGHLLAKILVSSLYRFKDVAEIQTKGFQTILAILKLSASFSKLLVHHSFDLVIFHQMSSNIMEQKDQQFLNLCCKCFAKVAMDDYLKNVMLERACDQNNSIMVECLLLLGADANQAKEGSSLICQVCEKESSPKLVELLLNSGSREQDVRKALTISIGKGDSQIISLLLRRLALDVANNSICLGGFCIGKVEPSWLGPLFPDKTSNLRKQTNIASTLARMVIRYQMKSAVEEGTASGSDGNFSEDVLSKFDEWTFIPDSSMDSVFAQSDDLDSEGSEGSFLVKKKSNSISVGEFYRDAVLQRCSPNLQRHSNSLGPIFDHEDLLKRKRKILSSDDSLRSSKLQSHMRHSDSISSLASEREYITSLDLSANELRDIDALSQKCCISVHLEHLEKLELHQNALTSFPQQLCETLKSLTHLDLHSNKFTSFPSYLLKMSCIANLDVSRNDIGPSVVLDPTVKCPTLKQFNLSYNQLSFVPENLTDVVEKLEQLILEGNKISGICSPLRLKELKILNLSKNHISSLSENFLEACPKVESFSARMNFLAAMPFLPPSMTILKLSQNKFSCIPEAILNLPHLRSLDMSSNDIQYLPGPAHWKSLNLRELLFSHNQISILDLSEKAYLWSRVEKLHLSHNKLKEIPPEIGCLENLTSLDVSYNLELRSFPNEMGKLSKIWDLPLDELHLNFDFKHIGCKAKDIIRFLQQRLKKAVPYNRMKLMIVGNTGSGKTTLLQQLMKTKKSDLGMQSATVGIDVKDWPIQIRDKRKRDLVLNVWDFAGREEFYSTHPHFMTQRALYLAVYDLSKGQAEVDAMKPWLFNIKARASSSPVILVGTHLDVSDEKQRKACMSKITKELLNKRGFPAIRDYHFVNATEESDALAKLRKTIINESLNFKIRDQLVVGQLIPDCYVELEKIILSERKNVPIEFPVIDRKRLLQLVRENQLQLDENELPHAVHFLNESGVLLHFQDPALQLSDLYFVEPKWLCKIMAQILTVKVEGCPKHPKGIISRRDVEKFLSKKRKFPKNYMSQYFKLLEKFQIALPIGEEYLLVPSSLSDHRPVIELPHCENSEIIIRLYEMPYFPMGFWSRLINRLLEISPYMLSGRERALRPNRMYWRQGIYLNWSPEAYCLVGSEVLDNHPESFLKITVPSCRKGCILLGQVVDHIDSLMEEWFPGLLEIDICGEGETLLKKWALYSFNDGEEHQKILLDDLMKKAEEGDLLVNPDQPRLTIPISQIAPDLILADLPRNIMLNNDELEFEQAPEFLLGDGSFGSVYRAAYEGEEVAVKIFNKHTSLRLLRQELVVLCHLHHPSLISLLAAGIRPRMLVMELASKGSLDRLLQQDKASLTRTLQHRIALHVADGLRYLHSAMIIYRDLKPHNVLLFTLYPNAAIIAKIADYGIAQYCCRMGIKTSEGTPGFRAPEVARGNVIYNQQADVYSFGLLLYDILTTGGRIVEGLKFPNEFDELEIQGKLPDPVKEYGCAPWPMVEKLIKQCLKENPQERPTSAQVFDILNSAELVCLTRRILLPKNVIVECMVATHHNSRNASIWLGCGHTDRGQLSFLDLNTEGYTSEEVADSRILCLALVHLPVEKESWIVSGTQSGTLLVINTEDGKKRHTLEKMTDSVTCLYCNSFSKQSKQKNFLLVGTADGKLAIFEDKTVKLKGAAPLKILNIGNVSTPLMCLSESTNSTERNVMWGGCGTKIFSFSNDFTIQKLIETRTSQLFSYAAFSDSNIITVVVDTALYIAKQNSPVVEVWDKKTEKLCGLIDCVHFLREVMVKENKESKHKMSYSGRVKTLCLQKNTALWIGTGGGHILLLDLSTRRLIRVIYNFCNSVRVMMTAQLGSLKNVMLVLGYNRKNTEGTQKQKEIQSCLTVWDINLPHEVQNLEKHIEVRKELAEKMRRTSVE
Leucine-rich repeat serine/threonine-protein kinase 2 (Homo sapiens), Q5S007 [G2019S], sequence (Q5S007 whole entry G2019S): as the sequence (Q5S007 whole entry) above, with G2019S counted along it
Casein kinase I isoform gamma-1 (Homo sapiens), sequence (Q9HCP0 whole entry, looked up, canonical isoform): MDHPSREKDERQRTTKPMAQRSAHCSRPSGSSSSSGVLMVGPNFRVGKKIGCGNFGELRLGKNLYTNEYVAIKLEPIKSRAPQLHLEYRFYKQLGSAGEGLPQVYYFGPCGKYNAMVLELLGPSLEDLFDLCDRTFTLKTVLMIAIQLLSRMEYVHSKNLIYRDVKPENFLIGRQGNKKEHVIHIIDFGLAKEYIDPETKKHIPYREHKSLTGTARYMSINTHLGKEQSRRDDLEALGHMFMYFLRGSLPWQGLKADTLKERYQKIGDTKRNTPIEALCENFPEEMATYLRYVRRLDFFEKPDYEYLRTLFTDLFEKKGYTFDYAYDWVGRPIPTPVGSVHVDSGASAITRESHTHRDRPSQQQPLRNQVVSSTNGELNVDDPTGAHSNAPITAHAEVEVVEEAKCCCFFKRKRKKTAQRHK
Serine/threonine-protein kinase PLK2, sequence (Q9NYY3 whole entry, looked up): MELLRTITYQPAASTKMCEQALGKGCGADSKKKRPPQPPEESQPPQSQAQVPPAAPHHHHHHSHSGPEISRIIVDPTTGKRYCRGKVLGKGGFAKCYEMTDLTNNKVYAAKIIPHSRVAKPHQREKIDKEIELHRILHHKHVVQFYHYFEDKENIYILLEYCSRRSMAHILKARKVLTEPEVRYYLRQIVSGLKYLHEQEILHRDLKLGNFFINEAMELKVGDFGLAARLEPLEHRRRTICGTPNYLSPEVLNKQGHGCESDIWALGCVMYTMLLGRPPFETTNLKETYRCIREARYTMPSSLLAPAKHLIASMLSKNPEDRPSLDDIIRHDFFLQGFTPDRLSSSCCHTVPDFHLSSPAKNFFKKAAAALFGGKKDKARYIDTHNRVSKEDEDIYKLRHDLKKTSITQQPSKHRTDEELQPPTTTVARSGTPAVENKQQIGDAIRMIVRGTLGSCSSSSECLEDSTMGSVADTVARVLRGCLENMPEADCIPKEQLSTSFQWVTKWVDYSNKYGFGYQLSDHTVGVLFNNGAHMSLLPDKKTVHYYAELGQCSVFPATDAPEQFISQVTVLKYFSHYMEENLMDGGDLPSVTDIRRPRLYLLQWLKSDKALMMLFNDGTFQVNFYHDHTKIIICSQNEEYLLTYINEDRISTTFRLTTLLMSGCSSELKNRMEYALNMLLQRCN

As to `COCC(=O)NC/C=C/c1ccc2ncnc(Nc3ccc(Oc4ccc(C)nc4)c(C)c3)c2c1` [CP-724714], the % of control in [1] was found to be 100%. `N#Cc1cccc(-c2c[nH]c3ncnc(N4CCOCC4)c23)c1` came in with a % of inhibition in test [2] of 46%. For the compound `O=C(NOC[C@H](O)CO)c1ccc(F)c(F)c1Nc1ccc(I)cc1F`, the % of control in test [3] came to 100%; in [4], 86%. `CN(C(=O)c1cnn2cccnc12)c1cc2c(cc1N1CCOCC1)C(=O)N(C[C@@H](F)C(C)(C)O)C2`: the dTM in [5] was -0.1 K. On to `COc1cc(Nc2nc(C)cc(-c3cnn4nc(OC)ccc34)n2)cc(C(F)(F)F)c1`, for which the % of control in test [6] came to 96%; in [7], 77%. In the case of `CN(C)CCOc1ccc(-c2nc(-c3ccncc3)c(-c3ccc4c(c3)CC/C4=N\O)[nH]2)cc1`, in test [8], the % of control came out at 45%. For the compound `Nc1cnc(N2CCc3cc(S(=O)(=O)Nc4c(F)cc(Cl)cc4F)cc(N4CCCC4=O)c32)nc1` [TP-020n], the % of control worked out at 100% in [9] and 97% in test [10]. Consider `COc1cc(N(C)c2ccnc3ccc(C(F)(F)F)cc23)cc(OC)c1OC`, for which the % binding in [11] is 77%.
